Measurements published in patent US20250263436A1, “BROAD-SPECTRUM ANTIVIRAL DRUG FOR ENTEROVIRUS, AND APPLICATION” (WUHAN INSTITUTE OF VIROLOGY, CHINESE ACADEMY OF SCIENCES, priority 2020, published 2025).
Several values for one entry are separate records, joined by “and”; a condition that tells them apart may be missing. Equal entries are not always repeated.

Experiments:
[1] = system: Vero cells; experiment: Cytotoxicity of polypeptides in Vero cells (CCK-8); assay type: cell-based; details: Vero cells, 24 h
Description: (§1) Therefore, this standard was testified by cytotoxicity assay, and the cells without any treatment were used as a control group.
(§2) (1) Vero cells were plated in a 96-well plate at 100 μL per well.
(§3) (2) When the cells grew to a confluence of 70%-80%, the DMEM medium containing 10% serum was replaced with a DMEM medium containing 2% serum, and a certain concentration gradient of polypeptide RQ or LQ or SQ was added, so that the final concentrations of the polypeptide in the wells were 0.073242 μM, 0.146484 μM, 0.292969 μM, 0.585938 μM, 1.171875 μM, 2.34375 μM, 4.6875 μM, 9.375 μM, 18.75 μM, 37.5 μM, 75 μM and 150 μM, respectively.
(§4) (3) The samples were collected 24 h after the addition of the polypeptide, and then 10 μL of live cell detection reagent CCK-8 was added to each well and mixed well.
(§5) (4) The plate was placed at 37° C. for 2 h.
(§6) (5) The absorbance value at OD450 was detected by a microplate reader.
(§7) The CC50 of each polypeptide was calculated taking the cell viability of untreated cells as 100%.

[2] = Cytotoxicity of polypeptides in Vero cells (CCK-8); assay type: cell-based; details: for CC50 at 24 h: African green monkey, Table 1 (Vero cells); for viability at 24 h, 0.073242 µM: polypeptide 0.073242 μM; for viability at 24 h, 0.146484 µM: polypeptide 0.146484 μM; for viability at 24 h, 0.292969 µM: polypeptide 0.292969 μM; for viability at 24 h, 0.585938 µM: polypeptide 0.585938 μM; for viability at 24 h, 1.17188 µM: polypeptide 1.171875 μM; for viability at 24 h, 2.34375 µM: polypeptide 2.34375 μM; for viability at 24 h, 4.6875 µM: polypeptide 4.6875 μM; for viability at 24 h, 9.375 µM: polypeptide 9.375 μM; for viability at 24 h, 18.75 µM: polypeptide 18.75 μM; for viability at 24 h, 150 µM: polypeptide 150 μM
Description: as §1, §2, §3, §4, §5, §6, §7

[3] = system: EV71; experiment: Inhibition of EV71 in Vero cells (viral RNA, qRT-PCR); assay type: cell-based, enterovirus 71 (EV71); details: anti-EV71 in Vero cells
Description: (§8) (1) Different cells were plated in a 24-well plate.
(§9) (2) When the cells grew to a confluence of 70%-80%, the DMEM medium containing 10% serum was replaced with a DMEM medium containing 2% serum (the DMEM medium containing 2% serum was added in each well at an amount of 0.5 mL), and 5 μL of EV71 virus of 1×10^6 PFU/mL was added to each well.
(§10) (3) After 1 h, different polypeptides (RQ or control TAT) with final concentrations of 0.3125 μM, 0.625 μM, 1.25 μM, 2.5 μM, and 5 μM were added respectively. The group without polypeptide added was used as a control.
(§11) (4) The samples were collected 24 h after the infection of EV71 virus, and RNA was extracted with the total RNA extraction kit.
(§12) (5) The supernatant was discarded, then 350 μL of TRK lysate was added to each well, and the plate was put on a shaker for 5 min.
(§13) (6) 350 μL of 70% ethanol (DEPC) was added to each well, and then the plate was put on a shaker for 5 min.
(§14) (7) The solution in each well was transferred to a RNA extraction column for 1 min of centrifugation at 12000 g.
(§15) (8) The solution obtained in the recovery tube was reloaded on the column again for 1 min of centrifugation at 12000 g.
(§16) (9) RNA washing buffer 1 was added in the column for 30 s of centrifugation at 12000 g.
(§17) (10) RNA washing buffer 2 was added in the column for 1 min of centrifugation at 12000 g.
(§18) (11) Step (10) was repeated.
(§19) (12) The column alone was centrifuged at 12000 g for 2 min to completely remove the residual RNA washing buffer.
(§20) (13) 50 μL of DEPC water was added to the column for 2 min of centrifugation at 12000 g.
(§21) (14) 2 μL of RNA sample was subjected to a fluorescence quantitative experiment using the one step qRT-PCR kit.
(1) Vero E6 cells were plated in a 24-well plate.
(3) After 1 h, different polypeptides (LQ or SQ) with final concentrations of 0.3125 μM, 0.625 μM, 1.25 μM, 2.5 μM, and 5 μM were added respectively. The group without polypeptide added was used as a control.

[4] = system: EV71; experiment: Inhibition of EV71 in RD cells (viral RNA, qRT-PCR); assay type: cell-based, enterovirus 71 (EV71); details: EV71, 24 h after infection
Description: as §8, §9, §10, §11, §12, §13, §14, §15, §16, §17, §18, §19, §20, §21
(3) After 1 h, different polypeptides (RQ or control TAT) with final concentrations of 0.3125 μM, 0.625 μM, 1.25 μM, 2.5 μM and 5 μM were added respectively. The group without polypeptide added was used as a control.

[5] = system: polypeptide RQ
[6] = Vero cells, 24 h, read-out: Cell viability (%)

| Compound | Cell viability (%) ([1]; polypeptide 0.073242 μM) | Cell viability (%) ([1]; polypeptide 0.146484 μM) | Cell viability (%) ([1]; polypeptide 0.292969 μM) | Cell viability (%) ([1]; polypeptide 0.585938 μM) | Cell viability (%) ([1]; polypeptide 1.171875 μM) | Cell viability (%) ([1]; polypeptide 2.34375 μM) | Cell viability (%) ([1]; polypeptide 4.6875 μM) | Cell viability (%) ([1]; polypeptide 9.375 μM) | Cell viability (%) ([1]; polypeptide 18.75 μM) | Cell viability (%) ([1]; polypeptide 37.5 μM) | Cell viability (%) ([1]; polypeptide 75 μM) | Cell viability (%) ([1]; polypeptide 150 μM) | CC50 at 24 h [2] [µM] | viability at 24 h, 0.073242 µM [2, 6] [%] | viability at 24 h, 0.146484 µM [2, 6] [%] | viability at 24 h, 0.292969 µM [2, 6] [%] | viability at 24 h, 0.585938 µM [2, 6] [%] | viability at 24 h, 1.17188 µM [2, 6] [%] | viability at 24 h, 2.34375 µM [2, 6] [%] | viability at 24 h, 4.6875 µM [2, 6] [%] | further results |
| --- | --- | --- | --- | --- | --- | --- | --- | --- | --- | --- | --- | --- | --- | --- | --- | --- | --- | --- | --- | --- | --- |
| CC[C@H](C)[C@H](NC(=O)[C@H](C)NC(=O)[C@H](CO)NC(=O)[C@H](CCCNC(=N)N)NC(=O)[C@H](CC(N)=O)NC(=O)[C@H](CC(N)=O)NC(=O)[C@H](Cc1ccc(O)cc1)NC(=O)[C@H](CCC(=O)O)NC(=O)[C@H](CCCNC(=N)N)NC(=O)[C@@H](NC(=O)[C@H](CC(C)C)NC(=O)CNC(=O)[C@H](CO)NC(=O)CNC(=O)[C@H](CCCNC(=N)N)NC(=O)[C@H](CCCNC(=N)N)NC(=O)[C@H](CCCNC(=N)N)NC(=O)[C@H](CCC(N)=O)NC(=O)[C@H](CCCNC(=N)N)NC(=O)[C@H](CCCNC(=N)N)NC(=O)[C@H](CCCCN)NC(=O)[C@H](CCCCN)NC(=O)[C@H](CCCNC(=N)N)NC(=O)CNC(=O)[C@@H](N)Cc1ccc(O)cc1)[C@@H](C)CC)C(=O)NCC(=O)N[C@@H](CC(N)=O)C(=O)N[C@H](C(=O)N[C@H](C(=O)N[C@@H](CCC(=O)O)C(=O)N[C@@H](C)C(=O)N[C@@H](CC(C)C)C(=O)N[C@@H](Cc1ccccc1)C(=O)N[C@@H](CCC(N)=O)C(=O)O)[C@@H](C)CC)[C@@H](C)O [LQ] | 105.9% and 97.02% | 104.7744% and 101.9913% | 106.5265% and 104.7619% | 110.5563% and 108.0087% | 115.1555% and 110.4762% | 106.3075% and 107.1861% | 104.8489% and 112.5108% | 119.5795% and 113.5931% | 115.6373% and 110.3247% | 99.1853% and 97.1429% | 108.2318% and 87.6084% and 90.8658% | 83.0968% and 80.9091% | > 150 | 100 | 103 | 112 | 110 | 111 | 105 | 111 | viability at 24 h, 9.375 µM [2, 6]: 114%; viability at 24 h, 18.75 µM [2, 6]: 109%; viability at 24 h, 37.5 µM ([2]; Vero cells, polypeptide 37.5 μM, 24 h, read-out: Cell viability (%)): 117%; viability at 24 h, 150 µM [2, 6]: 72.2%; IC50 [3]: 2.26 µM |
| CC[C@H](C)[C@H](NC(=O)[C@H](C)NC(=O)[C@H](CO)NC(=O)[C@H](CCCNC(=N)N)NC(=O)[C@H](CC(N)=O)NC(=O)[C@H](CC(N)=O)NC(=O)[C@H](Cc1ccc(O)cc1)NC(=O)[C@H](CCC(=O)O)NC(=O)[C@H](CCCNC(=N)N)NC(=O)[C@@H](NC(=O)[C@H](CC(C)C)NC(=O)[C@H](CCC(=O)O)NC(=O)[C@H](CO)NC(=O)CNC(=O)[C@H](CO)NC(=O)CNC(=O)[C@H](CCCNC(=N)N)NC(=O)[C@H](CCCNC(=N)N)NC(=O)[C@H](CCCNC(=N)N)NC(=O)[C@H](CCC(N)=O)NC(=O)[C@H](CCCNC(=N)N)NC(=O)[C@H](CCCNC(=N)N)NC(=O)[C@H](CCCCN)NC(=O)[C@H](CCCCN)NC(=O)[C@H](CCCNC(=N)N)NC(=O)CNC(=O)[C@@H](N)Cc1ccc(O)cc1)[C@@H](C)CC)C(=O)NCC(=O)N[C@@H](CC(N)=O)C(=O)N[C@H](C(=O)N[C@H](C(=O)N[C@@H](CCC(=O)O)C(=O)N[C@@H](C)C(=O)N[C@@H](CC(C)C)C(=O)N[C@@H](Cc1ccccc1)C(=O)N[C@@H](CCC(N)=O)C(=O)O)[C@@H](C)CC)[C@@H](C)O [SQ] | 103.4468% and 96.07% | 94.606% and 92.7401% | 103.1624% and 100.4524% | 103.9959% and 100.6225% | 94.07% and 98.81% | 101.1325% and 99.03% | 106.7734% and 95.3706% | 102.9859% and 103.7701% | 100.481% and 90.25% | 100.7644% and 90.65% and 80.6% | 90.36% and 95.75% and 70.31% | 80.35% and 60.9948% | 134 | 104 | 98 | 101 | 94.4 | 90.1 | 96.6 | 105 | viability at 24 h, 9.375 µM [2, 6]: 99.5%; viability at 24 h, 18.75 µM [2, 6]: 106%; viability at 24 h, 150 µM [2, 6]: 70%; IC50 [3]: 10.3 µM |
| AC-qflaeitngiasrnnyergsgrrrqrrkkrgy-NH2 [RQ-DRI] | – | – | – | – | – | – | – | – | – | – | – | – | – | – | – | – | – | – | – | – | Percentage of viral RNA in RD cells (%) ([4]; polypeptide 0.3125 μM): 90.2% and 150.7832% and 85.04%; Percentage of viral RNA in RD cells (%) ([4]; polypeptide 0.625 μM): 113.2834% and 92.13% and 108.0728%; Percentage of viral RNA in RD cells (%) ([4]; polypeptide 1.25 μM): 93.12% and 79.48% and 58.29%; Percentage of viral RNA in RD cells (%) ([4]; polypeptide 2.5 μM): 24.4% and 38.77% and 23.45%; Percentage of viral RNA in RD cells (%) ([4]; polypeptide 5 μM): 21.2764% and 19.04% and 17.19% |
| MBP-CVA16 2C protein | – | – | – | – | – | – | – | – | – | – | – | – | – | – | – | – | – | – | – | – | helicase activity (unwinding of HEX-labeled dsRNA substrate, gel electrophoresis) [5]: RQ inhibited the helicase activity of CVA16 2C in a dose-dependent manner |
